Columns and labels:
[1] = biological target: Leukocyte tyrosine kinase receptor (Homo sapiens, UniProt P29376); assay: Selectivity interaction (KinomeScan (DiscoverX)) EUB0001049a LTK; details: at 1 µM
[2] = biological target: Mitogen-activated protein kinase kinase kinase 1 (Homo sapiens, UniProt Q13233); assay: Selectivity interaction (KinomeScan (DiscoverX)) EUB0000229b MAP3K1; details: at 10 µM
[3] = biological target: Cyclin-dependent kinase 4/cyclin D1 (Homo sapiens) (UniProt P11802+P24385); assay: (§1) Selectivity interaction (KinomeScan (DiscoverX)) EUB0000229b CDK4; assay type: protein-complex assay; details: at 10 µM
[4] = biological target: CDK4/Cyclin D3 (Homo sapiens) (UniProt P11802+P30281); assay: as §1; assay type: protein-complex assay; details: at 10 µM
[5] = biological target: Insulin-like growth factor 1 receptor (Homo sapiens, UniProt P08069); assay: Selectivity interaction (KinomeScan (DiscoverX)) EUB0000229b IGF1R; details: at 10 µM
[6] = biological target: Dual specificity mitogen-activated protein kinase kinase 2 (Homo sapiens) (UniProt P36507); assay: Selectivity interaction (KinomeScan (DiscoverX)) EUB0001079a MAP2K2; details: at 1 µM
[7] = biological target: Protein kinase C eta type (Homo sapiens) (UniProt P24723); assay: Selectivity interaction (KinomeScan (DiscoverX)) EUB0001079a PRKCH; details: at 1 µM
[8] = biological target: RAC-alpha serine/threonine-protein kinase (Homo sapiens, UniProt P31749); assay: Selectivity interaction (Kinase panel (KiNativ target engagement assay in Jurkat cells)) EUB0001635a AKT1; assay type: cell-based; details: at 1 µM
[9] = biological target: Calcium/calmodulin-dependent protein kinase kinase 1 (Homo sapiens) (UniProt Q8N5S9); details: at 10 µM
[10] = biological target: Tyrosine-protein kinase JAK2 (Homo sapiens, UniProt O60674); details: at 10 µM
Sequence of Tyrosine-protein kinase JAK2 (O60674 whole entry): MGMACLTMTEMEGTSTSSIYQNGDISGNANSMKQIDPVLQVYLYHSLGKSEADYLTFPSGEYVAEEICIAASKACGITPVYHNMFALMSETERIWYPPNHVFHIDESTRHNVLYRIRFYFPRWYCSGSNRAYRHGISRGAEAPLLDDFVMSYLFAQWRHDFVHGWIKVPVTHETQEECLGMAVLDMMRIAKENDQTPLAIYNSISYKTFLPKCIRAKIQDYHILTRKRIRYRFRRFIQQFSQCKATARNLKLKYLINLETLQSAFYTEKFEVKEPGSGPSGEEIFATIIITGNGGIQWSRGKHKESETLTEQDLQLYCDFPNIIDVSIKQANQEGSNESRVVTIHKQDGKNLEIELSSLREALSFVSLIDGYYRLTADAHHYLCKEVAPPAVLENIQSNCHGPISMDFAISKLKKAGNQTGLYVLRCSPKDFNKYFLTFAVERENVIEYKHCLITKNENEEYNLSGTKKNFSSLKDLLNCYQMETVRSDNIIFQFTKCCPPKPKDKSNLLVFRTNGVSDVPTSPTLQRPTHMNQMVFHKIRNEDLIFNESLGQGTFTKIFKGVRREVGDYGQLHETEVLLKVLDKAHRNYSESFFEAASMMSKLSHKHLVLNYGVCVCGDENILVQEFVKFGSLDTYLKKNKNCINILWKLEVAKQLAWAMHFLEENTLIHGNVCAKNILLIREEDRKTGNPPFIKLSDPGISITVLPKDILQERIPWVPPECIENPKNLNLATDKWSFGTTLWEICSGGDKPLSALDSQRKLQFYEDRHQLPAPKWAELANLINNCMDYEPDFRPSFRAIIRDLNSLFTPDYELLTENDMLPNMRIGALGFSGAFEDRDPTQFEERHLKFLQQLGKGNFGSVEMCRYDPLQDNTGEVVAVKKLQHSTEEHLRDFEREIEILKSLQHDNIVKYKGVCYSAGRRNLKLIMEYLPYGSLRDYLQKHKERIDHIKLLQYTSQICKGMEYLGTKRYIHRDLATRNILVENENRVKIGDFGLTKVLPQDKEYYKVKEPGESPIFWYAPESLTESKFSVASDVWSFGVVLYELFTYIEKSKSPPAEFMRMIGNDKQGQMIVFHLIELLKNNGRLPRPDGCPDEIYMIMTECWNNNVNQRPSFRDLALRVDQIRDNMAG

[11] = biological target: T1, Aurora kinase A (Homo sapiens) (UniProt O14965); assay: Selectivity interaction (ActivX KiNativ screen (kinase selectivity in THP-1 cell lysates)) EUB0000639a STK6; assay type: subcellular; details: lysate, at 0.01 µM
T1 sequence (whole entry): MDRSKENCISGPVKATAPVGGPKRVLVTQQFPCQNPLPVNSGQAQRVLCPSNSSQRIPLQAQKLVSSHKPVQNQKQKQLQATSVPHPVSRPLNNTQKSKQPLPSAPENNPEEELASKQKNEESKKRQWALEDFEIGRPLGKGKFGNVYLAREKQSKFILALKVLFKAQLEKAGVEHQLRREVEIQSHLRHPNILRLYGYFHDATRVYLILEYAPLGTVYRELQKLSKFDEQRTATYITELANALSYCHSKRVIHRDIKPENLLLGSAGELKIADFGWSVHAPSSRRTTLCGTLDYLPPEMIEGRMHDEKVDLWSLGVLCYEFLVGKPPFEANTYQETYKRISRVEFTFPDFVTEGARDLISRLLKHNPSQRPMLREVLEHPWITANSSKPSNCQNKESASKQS

[12] = biological target: Mitogen-activated protein kinase 3 (Homo sapiens, UniProt P27361); assay: Selectivity interaction (ActivX KiNativ screen (kinase selectivity in THP-1 cell lysates)) EUB0000639a MAPK3; assay type: subcellular; details: lysate
Sequence of Mitogen-activated protein kinase 3 (P27361 whole entry): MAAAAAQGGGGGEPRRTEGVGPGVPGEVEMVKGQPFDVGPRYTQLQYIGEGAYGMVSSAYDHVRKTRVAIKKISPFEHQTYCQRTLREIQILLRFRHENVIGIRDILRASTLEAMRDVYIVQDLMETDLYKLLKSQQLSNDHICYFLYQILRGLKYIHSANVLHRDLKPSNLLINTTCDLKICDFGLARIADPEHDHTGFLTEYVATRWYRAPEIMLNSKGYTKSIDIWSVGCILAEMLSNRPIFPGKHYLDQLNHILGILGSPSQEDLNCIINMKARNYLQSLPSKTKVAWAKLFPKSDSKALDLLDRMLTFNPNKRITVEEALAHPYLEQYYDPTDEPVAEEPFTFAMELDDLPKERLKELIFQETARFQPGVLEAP

[13] = biological target: Serine/threonine-protein kinase pim-1 (Homo sapiens, UniProt P11309); assay: Selectivity interaction (Ambit KINOMEscan and KiNATiv profiling in Jurkat cells) EUB0000090b PIM1; assay type: cell-based; details: at 1 µM
Sequence of Serine/threonine-protein kinase pim-1 (P11309 whole entry, looked up): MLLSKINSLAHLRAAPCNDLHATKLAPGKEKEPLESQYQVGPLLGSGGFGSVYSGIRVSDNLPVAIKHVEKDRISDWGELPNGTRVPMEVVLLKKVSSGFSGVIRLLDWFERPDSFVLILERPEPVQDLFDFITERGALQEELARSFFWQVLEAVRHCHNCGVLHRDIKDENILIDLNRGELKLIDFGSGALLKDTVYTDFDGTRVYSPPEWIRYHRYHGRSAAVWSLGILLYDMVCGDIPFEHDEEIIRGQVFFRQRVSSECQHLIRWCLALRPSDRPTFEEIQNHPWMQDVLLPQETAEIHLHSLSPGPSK

[14] = biological target: Proto-oncogene tyrosine-protein kinase ROS (Homo sapiens) (UniProt P08922); assay: Selectivity interaction (KinomeScan (DiscoverX)) EUB0000045b ROS1
Sequence of Proto-oncogene tyrosine-protein kinase ROS (Homo sapiens) (P08922 whole entry): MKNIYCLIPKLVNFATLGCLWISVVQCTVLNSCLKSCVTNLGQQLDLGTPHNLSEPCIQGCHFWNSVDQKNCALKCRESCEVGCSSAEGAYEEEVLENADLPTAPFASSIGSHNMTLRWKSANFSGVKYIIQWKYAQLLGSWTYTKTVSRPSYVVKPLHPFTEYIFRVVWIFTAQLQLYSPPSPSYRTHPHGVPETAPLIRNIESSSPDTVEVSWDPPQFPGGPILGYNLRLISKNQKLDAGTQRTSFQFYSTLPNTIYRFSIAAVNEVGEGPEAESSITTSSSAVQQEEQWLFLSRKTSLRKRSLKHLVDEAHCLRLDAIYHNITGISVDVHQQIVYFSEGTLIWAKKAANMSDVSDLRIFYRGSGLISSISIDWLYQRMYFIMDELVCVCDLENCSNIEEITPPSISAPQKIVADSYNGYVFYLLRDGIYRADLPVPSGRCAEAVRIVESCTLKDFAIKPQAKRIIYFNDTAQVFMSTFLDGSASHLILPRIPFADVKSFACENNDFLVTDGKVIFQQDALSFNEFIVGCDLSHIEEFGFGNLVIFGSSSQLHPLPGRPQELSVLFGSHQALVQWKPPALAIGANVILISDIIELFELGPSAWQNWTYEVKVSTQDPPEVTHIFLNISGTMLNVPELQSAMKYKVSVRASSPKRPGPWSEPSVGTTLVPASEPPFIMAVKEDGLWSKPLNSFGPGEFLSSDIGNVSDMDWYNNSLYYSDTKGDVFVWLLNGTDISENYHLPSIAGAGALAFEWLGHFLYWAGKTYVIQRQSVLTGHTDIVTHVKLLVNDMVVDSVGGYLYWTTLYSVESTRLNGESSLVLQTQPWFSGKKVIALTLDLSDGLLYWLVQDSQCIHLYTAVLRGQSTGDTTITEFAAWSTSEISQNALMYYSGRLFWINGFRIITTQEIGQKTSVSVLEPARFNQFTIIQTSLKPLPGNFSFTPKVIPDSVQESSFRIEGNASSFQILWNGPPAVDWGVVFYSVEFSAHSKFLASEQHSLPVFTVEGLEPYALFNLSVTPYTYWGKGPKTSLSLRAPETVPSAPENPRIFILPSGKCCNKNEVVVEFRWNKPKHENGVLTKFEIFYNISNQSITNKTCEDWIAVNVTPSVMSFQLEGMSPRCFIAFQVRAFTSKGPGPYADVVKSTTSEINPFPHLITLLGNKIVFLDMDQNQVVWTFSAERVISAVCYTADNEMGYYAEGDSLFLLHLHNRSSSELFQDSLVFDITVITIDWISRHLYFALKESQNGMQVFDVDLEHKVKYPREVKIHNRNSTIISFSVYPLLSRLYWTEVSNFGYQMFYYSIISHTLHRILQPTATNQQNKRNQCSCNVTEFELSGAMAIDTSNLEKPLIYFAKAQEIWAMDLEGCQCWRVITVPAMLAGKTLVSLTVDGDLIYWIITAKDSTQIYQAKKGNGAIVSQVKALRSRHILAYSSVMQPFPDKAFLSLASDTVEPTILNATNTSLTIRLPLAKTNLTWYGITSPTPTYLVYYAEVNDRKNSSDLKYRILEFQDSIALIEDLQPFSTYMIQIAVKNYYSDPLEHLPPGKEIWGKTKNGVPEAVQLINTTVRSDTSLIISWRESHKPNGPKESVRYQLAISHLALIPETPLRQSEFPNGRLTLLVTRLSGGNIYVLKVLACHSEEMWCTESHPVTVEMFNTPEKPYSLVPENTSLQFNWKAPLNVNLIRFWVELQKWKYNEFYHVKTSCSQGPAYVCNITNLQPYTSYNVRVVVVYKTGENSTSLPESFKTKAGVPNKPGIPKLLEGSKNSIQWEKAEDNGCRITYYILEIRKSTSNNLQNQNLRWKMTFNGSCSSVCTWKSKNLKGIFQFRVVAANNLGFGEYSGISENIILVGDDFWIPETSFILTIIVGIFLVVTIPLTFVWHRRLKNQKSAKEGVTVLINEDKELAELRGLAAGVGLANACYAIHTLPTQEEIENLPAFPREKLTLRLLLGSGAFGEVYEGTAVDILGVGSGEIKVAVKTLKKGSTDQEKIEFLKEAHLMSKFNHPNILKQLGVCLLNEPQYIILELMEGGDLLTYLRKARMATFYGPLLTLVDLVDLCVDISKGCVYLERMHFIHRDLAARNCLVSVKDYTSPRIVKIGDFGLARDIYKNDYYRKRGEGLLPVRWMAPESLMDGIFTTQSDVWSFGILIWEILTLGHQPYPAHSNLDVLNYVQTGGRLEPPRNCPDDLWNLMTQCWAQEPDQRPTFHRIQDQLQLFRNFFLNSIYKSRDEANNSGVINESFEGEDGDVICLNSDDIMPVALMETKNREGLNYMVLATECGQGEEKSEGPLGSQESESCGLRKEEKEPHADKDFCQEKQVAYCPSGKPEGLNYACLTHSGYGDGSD

[15] = biological target: Mitogen-activated protein kinase 9 (Homo sapiens, UniProt P45984); assay: Selectivity interaction (KinomeScan (DiscoverX)) EUB0000618a MAPK9; details: at 10 µM
Aurora kinase B = Aurora kinase B (Homo sapiens, UniProt Q96GD4); details: at 10 µM
[16] = biological target: Calcium/calmodulin-dependent protein kinase kinase 2 (Homo sapiens) (UniProt Q96RR4); details: at 10 µM
[17] = biological target: Casein kinase I isoform gamma-3 (Homo sapiens) (UniProt Q9Y6M4); assay: Selectivity interaction (SelectScreen profiling (Invitrogen)) EUB0000607a CSNK1G3; details: at 2 µM
[18] = biological target: Phosphatidylinositol 4-phosphate 3-kinase C2 domain-containing subunit beta (Homo sapiens) (UniProt O00750); assay: Selectivity interaction (KinomeScan (DiscoverX)) EUB0000607a PIK3C2B; details: at 10 µM
[19] = biological target: Cyclin-dependent kinase 1/cyclin B (Homo sapiens) (UniProt P06493+P14635+Q8WWL7+O95067); assay: Selectivity interaction (Kinase panel (Z-LYTE Assay)) EUB0001632a CDK1; assay type: protein-complex assay; details: at 10 µM

Sequence of Leukocyte tyrosine kinase receptor (P29376 whole entry): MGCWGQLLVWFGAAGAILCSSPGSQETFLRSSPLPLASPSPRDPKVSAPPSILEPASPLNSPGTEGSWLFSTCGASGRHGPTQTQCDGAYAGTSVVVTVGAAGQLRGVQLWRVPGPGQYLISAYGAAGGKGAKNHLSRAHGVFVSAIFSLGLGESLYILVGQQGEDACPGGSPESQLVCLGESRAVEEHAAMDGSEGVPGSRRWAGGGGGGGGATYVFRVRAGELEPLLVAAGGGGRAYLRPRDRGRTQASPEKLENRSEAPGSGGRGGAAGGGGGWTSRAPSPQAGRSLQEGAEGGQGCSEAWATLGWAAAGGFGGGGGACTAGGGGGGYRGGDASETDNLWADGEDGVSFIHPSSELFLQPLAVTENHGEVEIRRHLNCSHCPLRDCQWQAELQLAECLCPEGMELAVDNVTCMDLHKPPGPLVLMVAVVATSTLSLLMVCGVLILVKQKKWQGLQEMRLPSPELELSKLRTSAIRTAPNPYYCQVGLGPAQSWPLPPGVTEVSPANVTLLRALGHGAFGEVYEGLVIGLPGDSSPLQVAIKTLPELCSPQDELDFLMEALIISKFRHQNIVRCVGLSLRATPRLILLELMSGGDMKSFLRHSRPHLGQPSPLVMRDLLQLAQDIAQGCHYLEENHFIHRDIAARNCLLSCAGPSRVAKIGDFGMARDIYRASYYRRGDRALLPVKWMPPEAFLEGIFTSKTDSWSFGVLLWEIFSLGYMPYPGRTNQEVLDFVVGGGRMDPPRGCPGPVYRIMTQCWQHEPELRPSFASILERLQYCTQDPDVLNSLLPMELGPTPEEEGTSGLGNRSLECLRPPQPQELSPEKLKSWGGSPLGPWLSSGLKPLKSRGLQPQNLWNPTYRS

Work on `COc1cc(Nc2nc(C)cc(-c3cnn4nc(OC)ccc34)n2)cc(C(F)(F)F)c1` yielded a % of control [1] of 91%.
In the case of `COc1cc(N(C)c2ccnc3ccc(C(F)(F)F)cc23)cc(OC)c1OC`, the % binding [2] is reported as 74%, the % binding [3] is reported as 99% and the % binding [4] is reported as 94%. It also gave a % binding [5] of 93%.
In the case of `Nc1cnc(N2CCc3cc(S(=O)(=O)Nc4c(F)cc(Cl)cc4F)cc(N4CCCC4=O)c32)nc1` [TP-020n], the % of control [6] is reported as 92% and the % of control [7] is reported as 80%.
`C=CC(=O)Nc1ccc(C(=O)Nc2[nH]nc3c2CN(C(=O)N[C@H](CN(C)C)c2ccccc2)C3(C)C)cc1` was tested, and the % of engagement [8] was -9.9%.
Compound `CCN(CC)CCCCNc1ncc2cc(-c3cc(OC)cc(OC)c3)c(NC(=O)NC(C)(C)C)nc2n1` has a % of control [9] of 100% and a % of control [10] of 100%.
In the case of `CC[C@@H]1[C@H](F)C(=O)N[C@@H]1COc1nccc2cc(C(N)=O)c(OC)cc12` [ZIMLOVISERTIB], the % of inhibition [11] is reported as -3.4%, the % of inhibition ([12]; at 0.01 µM) is reported as 0.3% and the % of inhibition ([12]; at 0.04 µM) is reported as 0.4%. For the same compound, the % of inhibition ([12]; at 0.2 µM) was 5%, the % of inhibition ([12]; at 1 µM) was 5.6% and the % of inhibition ([12]; at 5 µM) was -4.9%.
In the case of `CN(C)C/C=C/C(=O)Nc1ccc(C(=O)N2CCCC(Nc3ncc(Cl)c(-c4c[nH]c5ccccc45)n3)C2)cc1` (stereo not given), the % of control [13] is reported as 100%.
In the case of `C=CC(=O)Nc1cc(-n2c(=O)ccc3cnc4ccc(-c5ccc(NS(C)(=O)=O)cc5)cc4c32)ccc1C`, the % of control ([14]; at 1 µM) is reported as 81% and the % of control ([14]; at 10 µM) is reported as 83%.
Work on `O[C@H]1CC[C@H](Nc2ncc3nc(Nc4c(F)cc(F)cc4F)n([C@H]4CCOC4)c3n2)CC1` yielded a % of control [15] of 0%.
Work on `Cc1cc([C@@H](C)Nc2ccccc2C(=O)O)c2nc(N3CCOCC3)cc(=O)n2c1` [AZD-6482] yielded a % of control (Aurora kinase B) of 96% and a % of control [16] of 100%.
With `CNC(=O)Nc1ccc(-c2nc(N3CC4CCC(C3)O4)c3cnn(C4CCC5(CC4)OCCO5)c3n2)cc1` the % of inhibition [17] was -1% and the % of control [18] was 25%.
`Cn1cc(-n2cnc3c(NCc4nc5cc(Cl)c(Cl)cc5[nH]4)nc(N4CCOCC4)nc32)cn1` was tested, and the % of control [19] was 3.94%.

— ChEMBL document CHEMBL5465560, “Selectivity Literature for EUbOPEN Chemogenomic Library” (2024)
